According to BindingDB's records for doi:10.1021/acschembio.6b00555 (University of Nebraska-Lincoln, 2016):

What was measured:
Experiment in all cases: Fluorescence Polarization Assay
Settings in all cases: pH 7.35
[1] = target: T1, Tyrosine-protein kinase transforming protein Src [144-247,T181V,C186A,K201L] (Rous sarcoma virus subgroup B (strain Schmidt-Ruppin), UniProt P63185, C186A/K201L/T181V)
T1 construct: 144-247
Procedure: (§1) Three fluorescein-labeled peptide probes, FITC-sulfopeptide, FITC-phosphopeptide, and FITC-tyrosinepeptide (FITC, fluorescein isothiocyanate), were used. Individual peptide probes were dissolved in assay buffer containing potassium phosphate (20 mM, pH 7.35), NaCl (100 mM), DTT (2 mM), and bovine gamma globulin (0.1%). Aliquots of the peptide probe solution were distributed to 96-well fluorescence plate to reach a final concentration of 10 nM. After the addition of indicated amounts of SH2 domain protein, the assay solutions were mixed and incubated at RT in the dark for 25 min. Fluorescence polarization experimentswere performed on a Synergy H1 plate reader (BioTek Instruments, Inc.) equipped with standard filter cube (λEx = 485 nm, BP = 20 nm; λEm = 528 nm, BP = 20 nm). A standard sample layout in a 96-well plate was designed so that a single plate contains all the samples for one SH2 domain variant. Triplicate samples at each protein concentration were arrayed in the plat

[2] = target: T2, Tyrosine-protein kinase transforming protein Src [144-247,E177R,S178L,E179Q,T180R,T181V,C186A,K201L] (Rous sarcoma virus subgroup B (strain Schmidt-Ruppin), UniProt P63185, C186A/E177R/E179Q/K201L/S178L/T180R/T181V)
T2 construct: 144-247
Procedure: as §1

[3] = target: T3, Tyrosine-protein kinase transforming protein Src [144-247] (Rous sarcoma virus subgroup B (strain Schmidt-Ruppin), UniProt P00524)
T3 construct: 144-247
Procedure: as §1

[4] = target: T4, Tyrosine-protein kinase transforming protein Src [144-247,E177Q,S178L,E179A,T180R,T181V,C186A,K201L] (Rous sarcoma virus subgroup B (strain Schmidt-Ruppin), UniProt P63185, C186A/E177Q/E179A/K201L/S178L/T180R/T181V)
T4 construct: 144-247
Procedure: as §1

T3 sequence (P00524 144-247): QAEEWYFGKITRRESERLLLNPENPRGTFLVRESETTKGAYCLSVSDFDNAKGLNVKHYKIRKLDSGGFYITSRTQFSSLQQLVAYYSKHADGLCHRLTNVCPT
T2 sequence (P63185 144-247 E176R/S177L/E178Q/T179R/T180V/C185A/K200L): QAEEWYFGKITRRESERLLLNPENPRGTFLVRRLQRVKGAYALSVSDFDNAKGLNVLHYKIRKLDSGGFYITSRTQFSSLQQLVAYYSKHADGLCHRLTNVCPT
T4 sequence (P63185 144-247 E176Q/S177L/E178A/T179R/T180V/C185A/K200L): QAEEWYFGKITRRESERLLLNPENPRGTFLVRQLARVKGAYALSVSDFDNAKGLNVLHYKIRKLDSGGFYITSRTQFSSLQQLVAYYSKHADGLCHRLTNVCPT
T1 sequence (P63185 144-247 T180V/C185A/K200L): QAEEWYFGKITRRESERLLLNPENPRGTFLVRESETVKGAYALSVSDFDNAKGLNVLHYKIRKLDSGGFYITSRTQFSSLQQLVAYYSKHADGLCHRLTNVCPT

Row | Structure (SMILES) | Kd [1] | Kd [2] | Kd [3] | Kd [4]
1 | N[C@@H](Cc1ccc(OP(=O)(O)O)cc1)C(=O)O [Phosphotyrosine (pTyr)] | 4.9 nM | 2.5 nM | 61 nM | 7.7 nM
2 | N[C@@H](Cc1ccc(OS(=O)(=O)O)cc1)C(=O)O [Sulfotyrosine (sTyr)] | 349 nM | 5.6 nM | 9620 nM | 10.4 nM
